Key:
[1] = system: A253 (Head and Neck Carcinoma); experiment: Bliss excess, mean over the matrix (fraction); higher = more synergy
In short: (§1)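 After 24 hours at 37°C and 5% CO2 in 1536-well plates, cells in DMEM/F12 or RPMI plus 10% FBS received two-drug dose matrices for 72 hours. Viability came from CellTiter-Glo 2.0 luminescence and was scaled as inhibition, anchored at 0 by vehicle wells and at 1 by blank wells. Combination Emax is taken as the second-highest inhibition in the matrix, and Bliss excess as the observed combination effect less EA + EB − EA·EB, with EA and EB the single-agent effects.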

A101D (Melanoma) = experiment: combination Emax (second highest fraction inhibited in the dose matrix, 72 h); higher = more inhibition; extreme values may be limits of the assay
In short: as §1

A204 (Rhabdomyosarcoma) = experiment: as above
In short: as §1

[2] = system: A253 (Head and Neck Carcinoma); experiment: as above
In short: as §1

AU565 (Breast Carcinoma) = experiment: as above
In short: as §1

[3] = system: CAL-27 (Oral Cavity Carcinoma); experiment: as above
In short: as §1

[4] = system: CESS (Acute Myeloid Leukemia); experiment: as above
In short: as §1

COLO-792 (Melanoma) = experiment: as above
In short: as §1

[5] = system: DMS-53 (Small Cell Lung Carcinoma); experiment: as above
In short: as §1

[6] = system: DU-4475 (Breast Carcinoma); experiment: as above
In short: as §1

[7] = system: EPLC-272H (Other Solid Carcinomas); experiment: as above
In short: as §1

EW-16 (Ewing's Sarcoma) = experiment: as above
In short: as §1

[8] = system: G-402 (Other Solid Carcinomas); experiment: as above
In short: as §1

[9] = system: GA-10 (Burkitt's Lymphoma); experiment: as above
In short: as §1

[10] = system: JVM-2 (B-Cell Non-Hodgkin's Lymphoma); experiment: as above
In short: as §1

[11] = system: LS-411N (Colorectal Carcinoma); experiment: as above
In short: as §1

RH-41 (Rhabdomyosarcoma) = experiment: as above
In short: as §1

[12] = system: TE-10 (Esophageal Squamous Cell Carcinoma); experiment: as above
In short: as §1

[13] = system: UACC-812 (Breast Carcinoma); experiment: as above
In short: as §1

[14] = system: huH-1 (Hepatocellular Carcinoma); experiment: as above
In short: as §1
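For Bliss excess, mean over the matrix in this document: after 72 h of two-drug dosing.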

| SMILES | Bliss excess [1] | combination Emax (A101D (Melanoma)) | combination Emax (A204 (Rhabdomyosarcoma)) | combination Emax [2] | combination Emax (AU565 (Breast Carcinoma)) | combination Emax [3] | combination Emax [4] | combination Emax (COLO-792 (Melanoma)) | combination Emax [5] | combination Emax [6] | combination Emax [7] | combination Emax (EW-16 (Ewing's Sarcoma)) | combination Emax [8] | combination Emax [9] | combination Emax [10] | combination Emax [11] | combination Emax (RH-41 (Rhabdomyosarcoma)) | combination Emax [12] | combination Emax [13] | combination Emax [14] |
| --- | --- | --- | --- | --- | --- | --- | --- | --- | --- | --- | --- | --- | --- | --- | --- | --- | --- | --- | --- | --- |
| CN(CCO)CC[C@H](CSc1ccccc1)Nc1ccc(S(=O)(=O)NC(=O)c2ccc(N3CCC([C@@H](O)c4ccccc4-c4ccc(Cl)cc4)CC3)cc2)cc1S(=O)(=O)C(F)(F)F [AZD4320] + C1CN(CCC1(C(=O)N[C@@H](CCO)C2=CC=C(C=C2)Cl)N)C3=NC=NC4=C3C=CN4 [Capivasertib] (first compound max 1 µM, 7x7, partner max 3 µM) | -0.0035 | 0.429 | 0.266 | 0.499 | 0.413 | 0.191 | 0.69 | 0.78 | 0.965 | 0.883 | 0.642 | 0.461 | 0.327 | 0.586 | 0.702 | 0.543 | 1 | 0.231 | 0.226 | 0.197 |
| CN(CCO)CC[C@H](CSc1ccccc1)Nc1ccc(S(=O)(=O)NC(=O)c2ccc(N3CCC([C@@H](O)c4ccccc4-c4ccc(Cl)cc4)CC3)cc2)cc1S(=O)(=O)C(F)(F)F [AZD4320] + CCN(CCO)CCCOc1ccc2c(Nc3cc(CC(=O)Nc4cccc(F)c4)[nH]n3)ncnc2c1 [AZD2811] (first compound max 1 µM, 7x7, partner max 1 µM) | 0.0364 | 0.667 | 0.261 | 0.467 | 0.34 | 0.752 | 0.937 | 0.781 | 0.949 | 0.971 | 0.635 | 0.973 | 0.776 | 0.661 | 0.801 | 0.567 | 0.828 | 0.463 | 0.12 | 0.297 |
| CN(CCO)CC[C@H](CSc1ccccc1)Nc1ccc(S(=O)(=O)NC(=O)c2ccc(N3CCC([C@@H](O)c4ccccc4-c4ccc(Cl)cc4)CC3)cc2)cc1S(=O)(=O)C(F)(F)F [AZD4320] + C[C@@H]1COCCN1C2=NC(=NC(=C2)C3(CC3)[S@](=N)(=O)C)C4=C5C=CNC5=NC=C4 [AZD6738] (first compound max 1 µM, 7x7, partner max 10 µM) | 0.0045 | 0.891 | 0.438 | 0.892 | 0.494 | 0.498 | 0.987 | 0.692 | 0.994 | 1 | 0.936 | 0.932 | 0.84 | 0.979 | 0.908 | 0.943 | 0.964 | 0.84 | 0.275 | 0.823 |
| CN(CCO)CC[C@H](CSc1ccccc1)Nc1ccc(S(=O)(=O)NC(=O)c2ccc(N3CCC([C@@H](O)c4ccccc4-c4ccc(Cl)cc4)CC3)cc2)cc1S(=O)(=O)C(F)(F)F [AZD4320] + C[C@@H](Nc1cc(F)cc(F)c1)c1cc(C(=O)N(C)C)cc2c(=O)cc(N3CCOCC3)oc12 [AZD8186] (first compound max 1 µM, 7x7, partner max 3 µM) | 0.0229 | 0.781 | 0.451 | 0.437 | 0.364 | 0.659 | 0.935 | 0.939 | 0.991 | 1 | 0.602 | 0.937 | 0.681 | 0.85 | 0.892 | 0.414 | 0.941 | 0.618 | – | 0.229 |
| CN(CCO)CC[C@H](CSc1ccccc1)Nc1ccc(S(=O)(=O)NC(=O)c2ccc(N3CCC([C@@H](O)c4ccccc4-c4ccc(Cl)cc4)CC3)cc2)cc1S(=O)(=O)C(F)(F)F [AZD4320] + Cc1cc2ncnn2cc1Nc1ncc2c(n1)n(C1CCOCC1)c(=O)n2C [AZD7648] (first compound max 1 µM, 7x7, partner max 10 µM) | -0.0253 | 0.452 | 0.273 | 0.149 | 0.327 | 0.0955 | 0.566 | 0.9 | 0.977 | 0.916 | 0.525 | 0.389 | 0.475 | 0.643 | 0.642 | 0.183 | 0.91 | 0.202 | 0.15 | 0.127 |
| CN(CCO)CC[C@H](CSc1ccccc1)Nc1ccc(S(=O)(=O)NC(=O)c2ccc(N3CCC([C@@H](O)c4ccccc4-c4ccc(Cl)cc4)CC3)cc2)cc1S(=O)(=O)C(F)(F)F [AZD4320] + Cn1cnc2c(F)c(Nc3ccc(Br)cc3Cl)c(C(=O)NOCCO)cc21 [Selumetinib] (first compound max 1 µM, 7x7, partner max 3 µM) | 0.0339 | 0.781 | 0.325 | 0.523 | 0.421 | 0.661 | 0.95 | 0.913 | 1 | 1 | 0.562 | 0.913 | 0.553 | 0.491 | 0.889 | 0.907 | 0.855 | 0.562 | 0.238 | 0.291 |
| Cc1cc2ncnn2cc1Nc1ncc2c(n1)n(C1CCOCC1)c(=O)n2C [AZD7648] + C=CCn1c(=O)c2cnc(Nc3ccc(N4CCN(C)CC4)cc3)nc2n1-c1cccc(C(C)(C)O)n1 [AZD1775] (first compound max 10 µM, partner max 1 µM) | 0.0493 | 0.762 | 0.43 | 0.415 | 0.547 | 0.345 | 0.919 | 0.558 | 0.204 | 0.88 | 0.832 | 0.448 | 0.543 | 0.988 | 0.899 | 0.574 | 0.927 | 0.86 | 0.209 | 0.746 |
| Cc1cc2ncnn2cc1Nc1ncc2c(n1)n(C1CCOCC1)c(=O)n2C [AZD7648] + CCN(CCO)CCCOc1ccc2c(Nc3cc(CC(=O)Nc4cccc(F)c4)[nH]n3)ncnc2c1 [AZD2811] (first compound max 10 µM, 7x7, partner max 1 µM) | 0.0411 | 0.39 | 0.467 | 0.316 | 0.366 | 0.583 | 0.243 | 0.46 | 0.165 | 0.23 | 0.496 | 0.445 | 0.663 | 0.852 | 0.7 | 0.208 | 0.329 | 0.335 | 0.242 | 0.561 |
| Cc1cc2ncnn2cc1Nc1ncc2c(n1)n(C1CCOCC1)c(=O)n2C [AZD7648] + CN(C)CCCOc1ccc(-c2ccc3ncc4c(c3c2)n(C2CCOCC2)c(=O)n4C)cn1 [AZD0156] (first compound max 10 µM, 7x7, partner max 1 µM) | 0.0149 | 0.374 | 0.384 | 0.244 | 0.593 | 0.222 | 0.367 | 0.351 | 0.139 | 0.0619 | 0.458 | 0.192 | 0.51 | 0.446 | 0.622 | 0.115 | 0.282 | 0.292 | 0.288 | 0.3 |
| Cc1cc2ncnn2cc1Nc1ncc2c(n1)n(C1CCOCC1)c(=O)n2C [AZD7648] + C[C@@H]1COCCN1C2=NC(=NC(=C2)C3(CC3)[S@](=N)(=O)C)C4=C5C=CNC5=NC=C4 [AZD6738] (first compound max 10 µM, 7x7, partner max 10 µM) | 0.0402 | 0.778 | 0.439 | 0.77 | 0.416 | 0.431 | 0.847 | 0.386 | 0.153 | 0.912 | 0.879 | 0.69 | 0.602 | 0.981 | 0.842 | 0.723 | 0.705 | 0.887 | 0.267 | 0.8 |
| Cc1cc2ncnn2cc1Nc1ncc2c(n1)n(C1CCOCC1)c(=O)n2C [AZD7648] + O=C(c1cc(Cc2n[nH]c(=O)c3ccccc23)ccc1F)N1CCN(C(=O)C2CC2)CC1 [Olaparib] (first compound max 10 µM, 7x7, partner max 10 µM) | -0.0419 | 0.261 | 0.246 | 0.17 | 0.213 | 0.347 | 0.37 | 0.347 | 0.128 | 0.565 | 0.53 | 0.47 | 0.41 | 0.569 | 0.624 | 0.0674 | 0.345 | 0.233 | 0.177 | 0.198 |
| COc1cc2c(cc1OCCCCCOc1cc3c(cc1OC)C(=O)N1C=C(C)C[C@H]1C=N3)N=C[C@@H]1CC(C)=CN1C2=O [SG3199] + O=C(c1cc(Cc2n[nH]c(=O)c3ccccc23)ccc1F)N1CCN(C(=O)C2CC2)CC1 [Olaparib] (first compound max 0.001 µM, 7x7, partner max 10 µM) | -0.0426 | 0.214 | 0.178 | 0.0649 | 0.138 | 0.288 | 0.182 | 0.109 | 0.153 | 0.838 | 0.123 | 0.445 | 0.364 | 0.324 | 0.466 | 0.0262 | 0.245 | 0.107 | 0.134 | 0.142 |

Source: the supplement of paper PMC11061612
